Results taken from patent US20160264565A1, “CRYSTALLINE DASATINIB PROCESS” (SHILPA MEDICARE LIMITED, priority 2013, published 2016).

Legend:
[1] = Stability of the crystal form on drying; type: physicochemical; conditions: drying for more than 20 hrs at 60-65° C.
Experimental: (§1) This stable form thus, offers various advantages in terms of storage, shelf life and favorable impurity profile.
(§2) The new stable crystalline Form-SDI is characterized by 3-methylbutan-1-ol content in range of 10-16% w/w. […] 3-methylbutan-1-ol content even on drying for more than 20 hrs at 60-65° C. This offers advantages for large scale manufacturing in terms of handling, storage, shelf life and favorable impurity profile.

[2] = Stability on handling and storage; type: physicochemical; conditions: handle and store for longer time
Experimental: as §1, §2

- stoichiometry (3-methylbutan-1-ol content) on drying [1]: retains its stoichiometry
- change in morphology and physicochemical characteristics on handling and storage for longer time ([2]; listed as Form-SDI): without any measurable change
Compound: Cc1nc(Nc2ncc(C(=O)Nc3c(C)cccc3Cl)s2)cc(N2CCN(CCO)CC2)n1 [Crystalline Form-SDI of Dasatinib, N-(2-chloro-6-methylphenyl)-2-[[6-[4-(2-hydroxyethyl)-1-piperazinyl]-2-methyl-4-pyrimidinyl]amino]-5-thiazolecarboxamide]
- change in morphology and physicochemical characteristics on handling and storage for longer time [2]: without any significant or measurable change
